In the supplement of paper PMC5844555:

Legend:
Assay in all cases: 3' UTR reporter interaction score (median-centred robust z-score of log2 firefly/Renilla activity); higher = less repression of the 3' UTR reporter
Details in all cases: HEK293T; 48 h
TP53 = test system: TP53
Procedure, shortened: (§1)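 HEK293T cells (10,000/well, 96-well plates) were co-transfected using DharmaFECT Duo with 100 ng firefly luc2P reporter carrying the gene's 3' UTR, 20 ng Renilla pRL-TK control and 2.5 pmol miRNA mimic. Dual-luciferase activities were read 48 h post-transfection. The interaction score is the log-transformed firefly/Renilla ratio as a per-plate robust z-score (median, median absolute deviation), median-centred per miRNA and averaged over at least two independent screens; more negative indicates interaction.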

BRCA2 = test system: BRCA2
Procedure, shortened: as §1

MYB = test system: MYB
Procedure, shortened: as §1

ZEB2 = test system: ZEB2
Procedure, shortened: as §1

MYC = test system: MYC
Procedure, shortened: as §1

PHOX2B = test system: PHOX2B
Procedure, shortened: as §1

MYT1L = test system: MYT1L
Procedure, shortened: as §1

EZH2 = test system: EZH2
Procedure, shortened: as §1

HRAS = test system: HRAS
Procedure, shortened: as §1

PHF6 = test system: PHF6
Procedure, shortened: as §1

NOTCH1 = test system: NOTCH1
Procedure, shortened: as §1

RB1 = test system: RB1
Procedure, shortened: as §1

MYCN = test system: MYCN
Procedure, shortened: as §1

FBXW7 = test system: FBXW7
Procedure, shortened: as §1

Sequence | 3' UTR reporter interaction score (TP53) | 3' UTR reporter interaction score (BRCA2) | 3' UTR reporter interaction score (MYB) | 3' UTR reporter interaction score (ZEB2) | 3' UTR reporter interaction score (MYC) | 3' UTR reporter interaction score (PHOX2B) | 3' UTR reporter interaction score (MYT1L) | 3' UTR reporter interaction score (EZH2) | 3' UTR reporter interaction score (HRAS) | 3' UTR reporter interaction score (PHF6) | 3' UTR reporter interaction score (NOTCH1) | 3' UTR reporter interaction score (RB1) | 3' UTR reporter interaction score (MYCN) | 3' UTR reporter interaction score (FBXW7)
CAAAGUGCUCAUAGUGCAGGUAG | 0.0738 | 0.253 | -1.73 | 1.98 | -0.364 | 1.67 | -1.37 | -0.533 | 0.757 | 0.651 | 1.52 | 0.42 | -0.62 | 1
CAAAGUUUAAGAUCCUUGAAGU | -0.363 | 0.573 | 0.577 | -0.576 | -0.333 | -2.34 | 0.732 | 0.55 | 0.215 | 0.33 | -0.31 | 0.395 | -0.796 | -0.767
CAACCUGGAGGACUCCAUGCUG | 0.0572 | 0.635 | 1.15 | 0.335 | 0.486 | -0.796 | 0.329 | 0.157 | 0.685 | -0.934 | -0.127 | -2.92 | 0.831 | 0.0371
CAACGGAAUCCCAAAAGCAGCU | -0.924 | -0.135 | -0.0583 | 0.375 | 0.282 | -0.397 | -1.32 | 0.561 | 0.275 | -0.143 | 0.629 | 0.747 | -0.12 | -0.229
CAAGUCACUAGUGGUUCCGUUUA | -0.393 | 0.252 | -0.363 | 1.99 | -1.07 | 0.0612 | -1.25 | 0.168 | -1.48 | -0.71 | 1.15 | 1.58 | -0.0757 | 1.35
CACACACUGCAAUUACUUUUGC | 0.266 | 1.28 | -0.132 | -2.35 | 0.144 | 0.662 | 0.0502 | 0.0197 | 0.537 | -0.242 | -1.12 | -0.83 | 0.192 | -1.17
CACCCGUAGAACCGACCUUGCG | -0.17 | 0.615 | 0.655 | -1.09 | 0.596 | -3.87 | -0.00069 | -0.866 | 0.575 | -0.967 | -0.125 | -0.00577 | -0.0242 | 0.377
CACUCAGCCUUGAGGGCACUUUC | 0.0719 | 0.623 | 1.11 | 0.556 | -1.6 | 0.0189 | -1.55 | 0.269 | -0.0814 | -4 | 0.801 | 0.059 | 1.12 | -1.64
CAGCAGCAAUUCAUGUUUUGAA | 0.52 | 0.886 | -2.05 | 0.626 | -0.0621 | 1.12 | -4.35 | -0.709 | -0.93 | 2.81 | 0.0853 | 0.649 | -0.622 | -2.64
CAGCAGCACACUGUGGUUUGU | -0.308 | 0.267 | -2.62 | 1.1 | 0.347 | 0.464 | -4.01 | -1.21 | -1.05 | 1.13 | -0.283 | -0.141 | -0.42 | -2.99
CAGUAACAAAGAUUCAUCCUUGU | -0.52 | -0.621 | 0.361 | 0.308 | -0.308 | -1.19 | -0.326 | 0.69 | 0.555 | -3.72 | -0.945 | -3.18 | 1.32 | -0.152
CAGUGCAAUGAUGAAAGGGCAU | -0.295 | -0.463 | -1.75 | -0.474 | 0.674 | -0.853 | 0.286 | -0.471 | -0.234 | 0.644 | 0.857 | 1.03 | 1.64 | 0.958
CAGUGCAAUGUUAAAAGGGCAU | -0.31 | -0.00105 | -1.89 | -0.231 | 0.265 | 0.897 | -0.334 | -0.606 | -0.0408 | 0.0914 | 0.727 | 1.55 | 1.42 | 0.774
CAUAAAGUAGAAAGCACUAC | -0.122 | 0.352 | -0.0675 | -0.00923 | 0.0993 | 0.845 | -0.385 | -0.0463 | -0.266 | -0.673 | 0.3 | 0.941 | -0.0538 | -0.553
CAUCCCUUGCAUGGUGGAGGGU | 0.105 | -0.755 | 0.193 | -1.03 | 0.286 | -0.0949 | -1.78 | 0.459 | -0.474 | -0.203 | 0.0724 | -1.51 | 1.03 | -2.06
CAUCUGGAGGUAAGAAGCACUUU | -1.18 | 0.269 | -2.31 | 1.48 | -0.242 | -0.503 | -1.9 | 0.237 | 0.165 | 1.19 | -0.32 | 0.4 | -0.232 | 0.143
CAUCUUACCGGACAGUGCUGGA | -0.701 | 0.868 | -1.55 | -2.11 | -0.0291 | 0.65 | -0.174 | 0.0963 | 0.319 | 0.881 | 0.335 | -0.297 | -0.576 | -0.296

Sequence | 3' UTR reporter interaction score (TP53) | 3' UTR reporter interaction score (BRCA2) | 3' UTR reporter interaction score (MYB) | 3' UTR reporter interaction score (ZEB2) | 3' UTR reporter interaction score (MYC) | 3' UTR reporter interaction score (PHOX2B) | 3' UTR reporter interaction score (MYT1L) | 3' UTR reporter interaction score (EZH2) | 3' UTR reporter interaction score (HRAS) | 3' UTR reporter interaction score (PHF6) | 3' UTR reporter interaction score (NOTCH1) | 3' UTR reporter interaction score (RB1) | 3' UTR reporter interaction score (MYCN) | 3' UTR reporter interaction score (FBXW7)
CAUGCCUUGAGUGUAGGACCGU | 0.524 | 0.421 | 0.293 | -1.59 | -1.17 | -1.4 | -1.07 | 0.42 | -0.893 | 1.76 | -0.883 | 0.637 | -0.364 | 0.998
CAUUGCACUUGUCUCGGUCUGA | -0.48 | 0.658 | -0.142 | -2.69 | 0.278 | -0.664 | 0.397 | 0.125 | -0.416 | -1.24 | -0.145 | 0.825 | -0.0953 | -0.0954
CCACACCGUAUCUGACACUUU | 0.0153 | -0.654 | -0.254 | 1.51 | -1.37 | 0.567 | 0.0842 | -0.643 | -0.828 | 0.504 | -0.439 | 0.211 | 0.101 | 0.287
CCACUGCCCCAGGUGCUGCUGG | -1.28 | -0.289 | 0 | -1.03 | 0.494 | 0.479 | 1.35 | -0.183 | -0.594 | 0.422 | -1.62 | 0.0205 | 0.562 | -0.902
CCCAGAUAAUGGCACUCUCAA | -0.804 | 0.00154 | 0.409 | 0.427 | 0.82 | 0.745 | 0.0372 | 0.0427 | 0.111 | -0.296 | -0.834 | -2.36 | -0.998 | -0.29
CCCAGUGUUCAGACUACCUGUUC | -0.337 | 0.218 | 1.64 | -0.517 | 0.666 | -0.196 | 2.99 | -0.25 | -0.0015 | 0.112 | 0.374 | -1.81 | 0.198 | -0.85
CCCAGUGUUUAGACUAUCUGUUC | -0.323 | 0.494 | 0.059 | 0.476 | 0.186 | -0.251 | 1.93 | -0.185 | -0.315 | 0.458 | -0.226 | -0.794 | 0.905 | -0.738
CCUCUAGAUGGAAGCACUGUCU | -0.0691 | 1.43 | 1.05 | 0.763 | -0.352 | -0.512 | -0.377 | 0.875 | 0.49 | 0.44 | 0.00559 | 1.24 | -0.452 | -0.485
CCUCUGGGCCCUUCCUCCAG | 1.37 | 1.66 | 0.205 | 0.525 | -0.307 | -0.825 | -1.13 | -0.302 | 0.196 | 1.9 | -0.555 | 0.604 | 0.2 | -0.553
CGAAUGUUGCUCGGUGAACCCCU | -0.241 | -0.821 | 0.287 | -0.941 | 0.217 | 1.32 | 0.642 | -0.254 | -0.194 | -1.07 | 1.32 | 0.281 | 0.119 | 0.304
CGCAUCCCCUAGGGCAUUGGUGU | 0.263 | 0.625 | -0.38 | -0.392 | 0.19 | 0.221 | -3.16 | 0.639 | 1.06 | -0.956 | -1.34 | -0.799 | -0.239 | -0.0954
CGGGUGGAUCACGAUGCAAUUU | 0.809 | 0.639 | -0.118 | -1.87 | 0.166 | -0.988 | 0.0585 | -0.645 | -0.371 | -0.0241 | 0.128 | 0.702 | 0.00745 | 0.899
CUAAUAGUAUCUACCACAAUAAA | -0.375 | 0.274 | 1.16 | 0.675 | -0.306 | 0.231 | -0.606 | 0.167 | -0.78 | -0.303 | 0.264 | -0.459 | 0.604 | 0.465
CUACAAAGGGAAGCACUUUCUC | -1.31 | -0.805 | 0.666 | -3.59 | 0.411 | 1.76 | 0.757 | 0.77 | -1.25 | 0.716 | 0.148 | 0.032 | -0.614 | -0.7
CUCCAGAGGGAAGUACUUUCU | -0.641 | -0.139 | 1.53 | 0.514 | -0.333 | 0.786 | 1.19 | -0.448 | -1.03 | 1.27 | -0.176 | -2.92 | -0.236 | 1.4
CUCCAGAGGGAUGCACUUUCU | 0.339 | -0.169 | -0.659 | -0.701 | 0.629 | 1.08 | 0.128 | 0.363 | -0.937 | 1.04 | 0.885 | 0.459 | -0.234 | -0.219
CUCUAGAGGGAAGCACUUUCU | -0.127 | -0.166 | 1.78 | 1.31 | 0.565 | -1.07 | -0.138 | -0.021 | 0.934 | -0.252 | 0.59 | -0.897 | -0.174 | -1.73
